IC50 data for 5 molecules are collected here from ChEMBL document CHEMBL4616687, “Ligand Design for Cereblon Based Immunomodulatory Therapy” (ACS Med Chem Lett, 2020).

The target of the experiment is Bromodomain-containing protein 4 (Homo sapiens, UniProt O60885). Kind of experiment: Inhibition of BRD4 bromodomain 2 (unknown origin) in HEK293 cells cotransfected with eGFP by flow cytometry based mCherry reporter gene analysis. It counts as cell-based.

With `O=C1CCC(N2Cc3c(NC(=O)CNc4ccnc(N5CCC[C@@H]5CO)n4)cccc3C2=O)C(=O)N1` (stereo not given in full), the IC50 (in general, the midpoint of a concentration-inhibition curve) stood at 1600 nM.

As to `Nc1ccnc2c(C(=O)NC3CCC(=O)NC3=O)cccc12` (stereo not given), the IC50 turned out to be 7700 nM.

Turning to `CN(c1ccccc1)c1nccc(NCC(=O)Nc2cccc3c2CN(C2CCC(=O)NC2=O)C3=O)n1` (stereo not given), the IC50 worked out at 3440 nM. Against the preceding molecule, the IC50 is about 2.2-fold lower.

In turn, `Nc1ccc(C(=O)NC2CCC(=O)NC2=O)c2ncccc12` (stereo not given) returned an IC50 of 2900 nM.

As to `O=C1CCC(N2Cc3c(NC(=O)CNc4ccnc(N5CCN(c6cccc(C(F)(F)F)c6)CC5)n4)cccc3C2=O)C(=O)N1` (stereo not given), the IC50 was found to be 517 nM.
